Results published in ChEMBL document CHEMBL5316264, “Identification of N- and C-3-Modified Laudanosoline Derivatives as Novel Influenza PAN Endonuclease Inhibitors” (J Med Chem, 2023).
Activity calls are given as the source filed them. The calls are words filed in the database; no cut-off is given here.

How the values were obtained:
[1] = Cytotoxicity against MDCK cells incubated for 48 hrs by MTT assay; assay type: toxicity, cell-based, Canis lupus familiaris; details: dog
[2] = system: Influenza A virus; assay: Antiviral activity against influenza A virus H5N1(A/Duck/Guangdong/212/2004) infected in MDCK cells assessed as inhibition of cytopathic effect incubated for 48 hrs by MTT assay; assay type: functional, organism-based
[3] = system: Influenza A virus; assay: Antiviral activity against influenza A virus H3N2(JX/312) infected in MDCK cells assessed as inhibition of cytopathic effect incubated for 48 hrs by MTT assay; assay type: functional, organism-based
[4] = system: Influenza A virus; assay: Antiviral activity against influenza A virus Flu (B/Lee/1940) infected in MDCK cells assessed as inhibition of cytopathic effect incubated for 48 hrs by MTT assay; assay type: functional, organism-based
[5] = system: Influenza A virus; assay: Antiviral activity against Influenza A A/WSN/33 (H1N1) infected in BALB/c mouse at 10 mg/kg/day, ip administered twice daily for 5 days starting from 1 hrs post infection and measured daily for 14 days; assay type: functional, organism-based; details: time 5.0 day
[6] = in vitro; details: dog, MDCK cells
[7] = Metabolic stability in mouse liver microsomes assessed as half life at 10 uM incubated for 5 mins in presence of NADPH by LC-MS/MS analysis; assay type: ADME, Microsome
[8] = Metabolic stability in mouse liver microsomes assessed as intrinsic clearance at 10 uM incubated for 5 mins in presence of NADPH by LC-MS/MS analysis; assay type: ADME, Microsome; details: read-out: CLH
[9] = system: Influenza A virus; assay: Antiviral activity against influenza A virus A/WSN/33 (H1N1) infected in MDCK cells at 20 uM pre-infected with virus for 1 hr followed by compound addition and measured after 24 hrs post infection; assay type: functional, organism-based
[10] = target: Polymerase acidic protein (Influenza A virus (A/Puerto Rico/8/1934(H1N1))) (UniProt P03433); assay: Inhibition of Influenza A virus N-terminal domain of PA endonuclease using 6FAM-TGGCAATATCAGCTCCACA-MGBNFQ as fluorescent substrate by FRET analysis
[11] = Metabolic stability in mouse plasma assessed as compound remaining measured after 30 mins by LC-MS/MS analysis; assay type: ADME, cell-free; details: read-out: Stability
[12] = Metabolic stability in mouse plasma assessed as compound remaining measured after 60 mins by LC-MS/MS analysis; assay type: ADME, cell-free; details: read-out: Stability
[13] = Metabolic stability in mouse plasma assessed as compound remaining measured after 90 mins by LC-MS/MS analysis; assay type: ADME, cell-free; details: read-out: Stability
[14] = Metabolic stability in mouse plasma assessed as compound remaining measured after 120 mins by LC-MS/MS analysis; assay type: ADME, cell-free; details: read-out: Stability

| Structure (SMILES) | CC50 at 48 h [1] [µM] | selectivity ratio [6] | other results |
| --- | --- | --- | --- |
| CCC(CC)[C@H](NC(C)=O)[C@@H]1[C@H](O)[C@@H](C(=O)O)C[C@H]1NC(=N)N [PERAMIVIR ANHYDROUS] | > 101 | > 19.2 | EC50 [2]: 1.06 µM; EC50 [3]: 215 µM; EC50 [4]: 1.66 µM; Activity [5]: Active |
| O=C(O)Cc1ccccc1Nc1c(Cl)cccc1Cl [DICLOFENAC] | – | – | half-life at 10 µM [7]: 12.1 min; microsomal CLint at 10 µM [8]: 112 µL/min/mg |
| CC(=O)N[C@H]1[C@H]([C@H](O)[C@H](O)CO)OC(C(=O)O)=C[C@@H]1NC(=N)N | – | – | Activity [9]: inactive |
| O=C(Nc1ccncc1)[C@@H]1Cc2cc(O)c(O)cc2[C@H](Cc2ccc(O)c(O)c2)N1C(=O)c1ccccc1Cl | 203 | 101 | EC50 [2]: 2.85 µM; EC50 [3]: 0.95 µM; EC50 [4]: 0.82 µM |
| COC(=O)[C@@H]1Cc2cc(O)c(O)cc2[C@H](Cc2ccc(O)c(O)c2)N1C(=O)c1ccccc1Cl | 89.8 | 49.3 | EC50 [2]: 2.36 µM; EC50 [3]: 0.92 µM; EC50 [4]: 0.86 µM |
| COC(=O)[C@@H]1Cc2cc(O)c(O)cc2[C@H](Cc2ccc(O)c(O)c2)N1C(=O)c1ccccc1 | 157 | 29.7 | inhibition [10]: Dose-Dependent Effect |
| CC(C)[N+](C)(CCOC(=O)C1c2ccccc2Oc2ccccc21)C(C)C [PROPANTHELINE BROMIDE] | – | – | remaining at 0.5 h [11]: 45.5%; remaining at 1 h [12]: 18.2%; remaining at 1.5 h [13]: 10.3%; remaining at 2 h [14]: 2% |
| COC(=O)[C@@H]1Cc2cc(O)c(O)cc2[C@H](Cc2ccc(O)c(O)c2)N1C(=O)c1cccc(Br)c1 | > 101 | > 26.4 | – |
| COC(=O)[C@@H]1Cc2cc(O)c(O)cc2[C@H](Cc2ccc(O)c(O)c2)N1C(=O)c1ccccc1C(F)(F)F | > 101 | > 11.1 | – |
| COC(=O)CNC(=O)[C@@H]1Cc2cc(O)c(O)cc2[C@H](Cc2ccc(O)c(O)c2)N1C(=O)c1ccccc1Cl | 143 | 36.8 | – |
| COC(=O)[C@@H]1Cc2cc(O)c(O)cc2[C@H](Cc2ccc(O)c(O)c2)N1C(=O)c1ccc(Br)cc1 | > 101 | > 25.5 | – |
| COC(=O)[C@@H]1Cc2cc(O)c(O)cc2[C@H](Cc2ccc(O)c(O)c2)N1C(=O)c1ccc(F)cc1 | > 101 | > 33.6 | – |
